Broadly, the IC50 is the point on the concentration scale where inhibition reaches its midpoint. A word on the EC50: it is the concentration at which the effect is half-maximal.

This note sets out measurements from patent US5019575A, “Novel pyridazinone compounds, compositions thereof and method of use” (Orion-yhtyma Oy, priority 1989, dated 1991).

Data set [1] relates to troponin. As to the kind of experiment: Retention time in troponin high-performance liquid affinity chromatography (HPLAC) column, calcium dependent binding to troponin. The following applies: for Ratio Ca^2+ /EDTA (retention times in troponin-HPLAC column): Ca^2+ solution / EDTA solution; for Retention time in troponin-HPLAC column, Ca^2+ solution: mobile phase with 30 mM calcium; for Retention time in troponin-HPLAC column, Ca^2+ solution / Retention time in troponin-HPLAC column, EDTA solution: flow rate 1 ml/min; for Retention time in troponin-HPLAC column, EDTA solution: mobile phase without calcium (EDTA). How it is done: The contraction in cardiac muscle and in vascular smooth muscle is triggered by the binding of calcium to troponin and to calmodulin, respectively. […] Commercially available troponin was coupled to the matrix of SelectiSpher-10™ Activated Tresyl silica HPLAC column (size 10 cm×5 mm). The compounds were run through the column with the flow rate 1 ml/min and detected by UV-spectrophotometrically.

Data set [2] addresses T1, cardiac phosphodiesterase III (PDEIII), dog (Canis lupus familiaris, UniProt A0A8I3NYE0).
T1 construct: enzyme preparation isolated from dog and guinea-pig heart; from tissue; host or cells: dog heart
T1 sequence (A0A8I3NYE0 1-1135): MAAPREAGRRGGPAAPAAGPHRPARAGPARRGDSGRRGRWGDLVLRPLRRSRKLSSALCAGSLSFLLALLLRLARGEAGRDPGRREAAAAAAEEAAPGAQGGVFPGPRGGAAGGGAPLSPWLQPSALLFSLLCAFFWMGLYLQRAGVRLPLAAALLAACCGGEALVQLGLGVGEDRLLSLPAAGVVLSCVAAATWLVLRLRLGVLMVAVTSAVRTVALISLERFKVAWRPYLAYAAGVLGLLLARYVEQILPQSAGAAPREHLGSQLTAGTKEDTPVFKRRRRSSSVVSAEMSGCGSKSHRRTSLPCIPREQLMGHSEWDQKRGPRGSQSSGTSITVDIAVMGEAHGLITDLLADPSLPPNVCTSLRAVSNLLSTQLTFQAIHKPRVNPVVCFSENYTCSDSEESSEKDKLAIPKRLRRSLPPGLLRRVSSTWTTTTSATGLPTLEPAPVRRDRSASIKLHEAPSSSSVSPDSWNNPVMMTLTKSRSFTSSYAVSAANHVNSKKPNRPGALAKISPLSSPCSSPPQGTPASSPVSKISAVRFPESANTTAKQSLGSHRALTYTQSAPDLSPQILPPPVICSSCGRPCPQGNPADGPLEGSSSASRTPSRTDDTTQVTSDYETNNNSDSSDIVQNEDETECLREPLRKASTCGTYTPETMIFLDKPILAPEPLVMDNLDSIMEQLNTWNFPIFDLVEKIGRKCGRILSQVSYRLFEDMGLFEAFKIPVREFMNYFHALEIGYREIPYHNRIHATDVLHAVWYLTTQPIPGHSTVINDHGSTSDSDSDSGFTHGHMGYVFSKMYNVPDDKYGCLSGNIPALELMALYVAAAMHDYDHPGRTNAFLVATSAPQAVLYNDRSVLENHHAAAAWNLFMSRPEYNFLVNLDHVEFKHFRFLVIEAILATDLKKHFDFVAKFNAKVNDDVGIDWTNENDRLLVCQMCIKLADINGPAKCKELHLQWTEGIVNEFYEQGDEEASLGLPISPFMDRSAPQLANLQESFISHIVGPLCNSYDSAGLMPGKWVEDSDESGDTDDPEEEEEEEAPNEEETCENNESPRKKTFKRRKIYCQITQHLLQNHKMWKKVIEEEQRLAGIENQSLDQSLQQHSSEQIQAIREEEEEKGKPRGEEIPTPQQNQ
Kind of data set: Inhibition of cardiac phosphodiesterase III, dog heart enzyme preparation. Type of data set: biochemical.

Data set [3] has as its system guinea-pig papillary muscle. As to the kind of experiment: Cardiotonic effect in isolated, electrically driven, right ventricular papillary muscle, without and with carbachol. The following applies: for EC50: Cavia porcellus; for Ratio B/A of EC50: with 10 μM carbachol / without carbachol. How it is done:
The cardiotonic action of the compound was studied in isolated, electrically driven, right ventricular papillary muscle of guinea-pig.
A = experiments carried out without carbachol
B = experiments carried out in the presence of 10 μM carbachol

The nature of data set [4]: Precipitation at 100 μM concentration (footnote of Table 3). Type of data set: physicochemical. The arrangement: key: *: precipitation occurs at 100 μM concentration. The following applies: printed in column C of Table 3.
Data set [5] deals with T2, cardiac phosphodiesterase III (PDEIII), guinea-pig (Cavia porcellus, UniProt H0VIU9).
T2 construct: enzyme preparation isolated from dog and guinea-pig heart; from tissue; host or cells: guinea-pig heart
T2 sequence (H0VIU9 1-1132): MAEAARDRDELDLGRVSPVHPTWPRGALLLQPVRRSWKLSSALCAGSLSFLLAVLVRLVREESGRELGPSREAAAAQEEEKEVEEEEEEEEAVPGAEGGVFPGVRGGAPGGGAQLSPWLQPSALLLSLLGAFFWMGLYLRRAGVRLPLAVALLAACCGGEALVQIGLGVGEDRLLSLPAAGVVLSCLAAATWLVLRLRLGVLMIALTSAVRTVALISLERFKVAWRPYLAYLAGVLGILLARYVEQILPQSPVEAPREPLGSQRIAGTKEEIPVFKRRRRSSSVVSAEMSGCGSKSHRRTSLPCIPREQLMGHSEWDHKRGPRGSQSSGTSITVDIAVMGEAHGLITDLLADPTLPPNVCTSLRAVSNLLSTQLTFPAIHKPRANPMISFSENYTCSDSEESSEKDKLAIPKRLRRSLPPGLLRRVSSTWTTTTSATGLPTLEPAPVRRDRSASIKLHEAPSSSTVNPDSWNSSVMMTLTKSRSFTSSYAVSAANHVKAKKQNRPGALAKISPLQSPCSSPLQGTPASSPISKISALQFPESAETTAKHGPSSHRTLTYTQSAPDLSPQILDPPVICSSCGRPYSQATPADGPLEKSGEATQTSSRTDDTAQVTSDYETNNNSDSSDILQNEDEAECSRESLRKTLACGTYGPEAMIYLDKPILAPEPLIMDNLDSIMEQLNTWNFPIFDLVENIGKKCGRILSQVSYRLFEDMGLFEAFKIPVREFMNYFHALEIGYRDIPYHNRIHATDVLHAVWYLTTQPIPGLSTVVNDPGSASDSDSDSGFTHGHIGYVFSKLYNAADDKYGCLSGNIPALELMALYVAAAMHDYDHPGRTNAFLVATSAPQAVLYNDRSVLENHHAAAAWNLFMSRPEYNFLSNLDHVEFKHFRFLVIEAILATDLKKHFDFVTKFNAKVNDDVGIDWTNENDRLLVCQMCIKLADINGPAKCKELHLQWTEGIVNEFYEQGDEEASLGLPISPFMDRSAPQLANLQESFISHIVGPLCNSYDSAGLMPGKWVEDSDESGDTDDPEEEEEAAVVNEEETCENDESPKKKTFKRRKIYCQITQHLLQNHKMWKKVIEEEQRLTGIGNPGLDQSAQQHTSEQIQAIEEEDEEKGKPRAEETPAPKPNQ
As to the kind of experiment: Inhibition of cardiac phosphodiesterase III, guinea-pig heart enzyme preparation. The data set is classed as biochemical. The text has this:
The PDEIII inhibition was studied by using enzyme preparation isolated from dog and guinea-pig heart according to Alajoutsijarvi and Nissinen (Anal. Biochem. 165, 128-132, 1987).

In data set [6] the test system is guinea-pig papillary muscle. As to the kind of experiment: Ability to induce tonic contraction in papillary muscle in the absence of extracellular calcium. The following applies: drug concentration 100 μM; no extracellular calcium. The procedure:
The cardiotonic action of the compound was studied in isolated, electrically driven, right ventricular papillary muscle of guinea-pig. In order to compare the cardiotonic action based on PDEIII inhibition to that based on the other mechanisms the experiments were carried out in normal Tyrode's bathing solution (Otani et al., Japan. J. Pharmacol. 45, 425, 1987) and also in the solution with carbachol to eliminate the cardiotonic action due to the PDEIII inhibition (Alousi & Johnson, Circulation, 73 (suppl. III), 10-23, 1986).
C = ability to induce tonic contraction in the absence of extracellular
calcium; drug concentration 100 μM

SMILES strings stand for the structures. Read-outs that look alike come from different tables or passages of the source.

On to `CC(=O)C(=NNc1ccc(C2=NNC(=O)CC2)cc1)C(C)=O` [Example 7, 6-[4-(1,1-diacetylmethylidenehydrazino)phenyl]-4,5-dihydropyridazin-3(2H)on], for which, in data set [1], the “Ratio Ca^2+ /EDTA (retention times in troponin-HPLAC column)” value was 1.29; the “Retention time in troponin-HPLAC column, Ca^2+ solution” value is reported as 5.4 min; the “Retention time in troponin-HPLAC column, EDTA solution” value amounted to 4.2 min. Moreover, the IC50 in data set [2] (dog heart, read-out: IC50-value, inhibition of cardiac phosphodiesterase III, Dog) came to 230 nM. Also, the concentration giving a half-maximal response (EC50) in data set [3] (in the presence of 10 μM carbachol, read-out: EC50 cardiotonic effect (B)) came out at 2700 nM. The EC50 in data set [3] (without carbachol, read-out: EC50 cardiotonic effect (A)) worked out at 740 nM. Moreover, the “Ratio B/A of EC50” value in data set [3] came to 3.6. The precipitation entry in data set [4] was “*”.

`Cc1[nH]c(=O)c(C#N)cc1-c1ccncc1` [milrinone, reference compound]: in data set [1], the “Ratio Ca^2+ /EDTA (retention times in troponin-HPLAC column)” value is on record as 1.00; the “Retention time in troponin-HPLAC column, Ca^2+ solution” value was determined as 1.2 min; the “Retention time in troponin-HPLAC column, EDTA solution” value was determined as 1.2 min. Also, the IC50 in data set [2] was found to be 580 nM. In addition, the IC50 in data set [5] was found to be 440 nM. For the same compound, the EC50 in data set [3] (read-out: EC50 cardiotonic effect (A)) was 360 nM. The “Ratio B/A of EC50” value in data set [3] was found to be 15.3. For the same compound, in data set [6], the “C: ability to induce tonic contraction in the absence of extracellular calcium” value is reported as “no”.
